Values joined by “and” are separate entries in the source; they are usually repeats but may differ in a detail not shown here. Identical values can stand only once. Like-named read-outs stand apart in the source and are kept apart here.
How the values were obtained:
[1] = tested on: MDA-MB-231 (Mammary Gland, Adenocarcinoma); assay: Cell viability analysis (WST-1), breast cancer cell line MDA-MB-231; format: cell-based; conditions: Homo sapiens
Description: (§1) The cell numbers were counted and reseed as 2×10^6 in cell culture plate/flask. Then, the culture medium was added to a volume of 10 ml, and the cells were cultured for 2-3 days. Then, the cells were suspended for loading into 96-well plates. The cell number was 3000/well and the volume of the culture medium was 100 μl each well.
(§2) Removing the original culture medium from 96-well plate. Then add 100 μl of commercially drug at a concentration of 10 μM per well. After 72 hours, add the diluted WST-1 reagent to the well with 100 μl/well, and the diluted WST-1 reagent was acquired from the dilution of 9:1 medium and WST-1 stock reagent. Finally, the total volume of each well was 200 μl/well. Culture the 96-well plate at 37° C. for 30 to 90 minutes. Detecting and calculate the survival rate of each cancer cells with an ELISA reader at OD450 nm.

[2] = tested on: A549 (lung adenocarcinoma); assay: Cell viability analysis (WST-1), lung cancer cell line A549; format: cell-based; conditions: Homo sapiens
[3] = tested on: C-33A (Cervical carcinoma); assay: Cell viability analysis (WST-1), cervical cancer cell line C-33A; format: cell-based; conditions: Homo sapiens, 72 h
Description: as §1, §2

gastric cancer cell = assay: Summary of the effect on gastric cancer cell (AGS, MKN-45); format: cell-based; conditions: Homo sapiens, gastric cancer cell (mean of AGS and MKN-45 averages), 72 hours, read-out: Inhibitory effect
Description: as §2

[4] = tested on: U2OS (osteosarcoma cell line); assay: Cell viability analysis (WST-1), osteosarcoma cell line U2OS; format: cell-based; conditions: Homo sapiens
Description: as §1, §2

[5] = tested on: TSGH (bladder cancer cell line); assay: Cell viability analysis (WST-1), bladder cancer cell line TSGH; format: cell-based
Description: as §1, §2

[6] = tested on: gastric cancer cells (AGS) subcutaneous tumor; assay: Animal model test of gastric cancer: tumor size; format: in vivo, mice (BALB/cAnN.Cg-Foxn1nu/CrlNarl); conditions: for Tumor volume growth, average / tumor volume, average: group average; for Tumor volume growth / tumor longest length / tumor volume / tumor width: individual mice A, B, C
Description: In this invention, the female mice were (BALB/cAnN.Cg-Foxn1^nu/CrlNarl) purchased from National Laboratory Animal Center (Taiwan)). The weight of the mice were 21±1 g. These mice were subcutaneously injected with gastric cancer cells (AGS) and then put these mice into different cages at random. The drug test experiment was divided into three groups, include “control group”, “low dose group (100 mg/kg/day)”, and “high dose group (200 mg/kg/day)”. These mice were then injected test drug intraperitoneally once daily […]. The tumor sizes and body weight were measured twice a week. The tumor sizes were measured and calculated by formula: (L×W^2)/2. L represents the tumor longest length. W represents the tumor shortest diameter.

[7] = tested on: NIH-OVCAR-3 (ovarian cancer cell line); assay: Cell viability analysis (WST-1), ovarian cancer cell line NIH-OVCAR-3; format: cell-based; conditions: Homo sapiens
Description: as §1, §2

cervical cancer cell = assay: Summary of the effect on cervical cancer cell (HeLa, C-33A); format: cell-based; conditions: cervical cancer cell (mean of HeLa and C-33A averages), 72 hours, read-out: Inhibitory effect
Description: as §2

[8] = tested on: AGS (Gastric Adenocarcinoma); assay: Cell viability analysis (WST-1), gastric cancer cell line AGS; format: cell-based
Description: as §1, §2

[9] = 72 h, average of 4 tests, read-out: inhibition effect (survival rate of cells), average
[10] = 72 hours, test 0510-10 min, read-out: inhibition effect (survival rate of cells)
[11] = 72 hours, test 0512-10 min, read-out: inhibition effect (survival rate of cells)
[12] = 72 hours, test 0515-10 min, read-out: inhibition effect (survival rate of cells)
[13] = 72 hours, test 0517-10 min, read-out: inhibition effect (survival rate of cells)
[14] = high dose (200 mg/kg/day) i.p. once daily, Fifth measurement
[15] = high dose (200 mg/kg/day) i.p. once daily, First measurement
[16] = high dose (200 mg/kg/day) i.p. once daily, First measurement, 200 mg/kg/day
[17] = high dose (200 mg/kg/day) i.p. once daily, Fourth measurement
[18] = high dose (200 mg/kg/day) i.p. once daily, Second measurement
[19] = high dose (200 mg/kg/day) i.p. once daily, Second measurement, 200 mg/kg/day
[20] = high dose (200 mg/kg/day) i.p. once daily, Third measurement
[21] = high dose (200 mg/kg/day) i.p. once daily, Third measurement, 200 mg/kg/day
[22] = low dose (100 mg/kg/day) i.p. once daily, Fifth measurement
[23] = low dose (100 mg/kg/day) i.p. once daily, Fifth measurement, 100 mg/kg/day
[24] = low dose (100 mg/kg/day) i.p. once daily, First measurement
[25] = low dose (100 mg/kg/day) i.p. once daily, First measurement, 100 mg/kg/day
[26] = low dose (100 mg/kg/day) i.p. once daily, Fourth measurement
[27] = low dose (100 mg/kg/day) i.p. once daily, Fourth measurement, 100 mg/kg/day
[28] = low dose (100 mg/kg/day) i.p. once daily, Second measurement
[29] = low dose (100 mg/kg/day) i.p. once daily, Second measurement, 100 mg/kg/day
[30] = low dose (100 mg/kg/day) i.p. once daily, Third measurement
[31] = low dose (100 mg/kg/day) i.p. once daily, Third measurement, 100 mg/kg/day

SMILES: Oc1ccc(OCc2ccccc2)cc1 [Monobenzone]
- viability at 10 µM ([1]; MDA-MB-231, 72 h, MDA-MB-231, 10 μM, average of 4 tests, read-out: inhibition effect (survival rate of cells), average): 80.1%
- viability at 10 µM ([1]; MDA-MB-231, MDA-MB-231, 10 μM, 72 hours, test 0612-10 min, read-out: inhibition effect (survival rate of cells)): 91.3%
- viability at 10 µM ([1]; MDA-MB-231, MDA-MB-231, 10 μM, 72 hours, test 0614-10 min, read-out: inhibition effect (survival rate of cells)): 67.6%
- viability at 10 µM ([1]; MDA-MB-231, MDA-MB-231, 10 μM, 72 hours, test 0616-10 min, read-out: inhibition effect (survival rate of cells)): 69.6%
- viability at 10 µM ([1]; MDA-MB-231, MDA-MB-231, 10 μM, 72 hours, test 0619-10 min, read-out: inhibition effect (survival rate of cells)): 92%
- viability at 10 µM ([2]; A549, 72 h, A549, 10 μM, average of 4 tests, read-out: inhibition effect (survival rate of cells), Average): 93.4%
- viability at 10 µM ([2]; A549, A549, 10 μM, 72 hours, test 0524-10 min, read-out: inhibition effect (survival rate of cells)): 80.8%
- viability at 10 µM ([2]; A549, A549, 10 μM, 72 hours, test 0526-10 min, read-out: inhibition effect (survival rate of cells)): 111%
- viability at 10 µM ([2]; A549, A549, 10 μM, 72 hours, test 0529-10 min, read-out: inhibition effect (survival rate of cells)): 80.8%
- viability at 10 µM ([3]; average of 4 tests, read-out: inhibition effect (survival rate of cells), average): 62.3%
- viability at 10 µM ([3]; test 1, read-out: inhibition effect (survival rate of cells)): 57.9%
- viability at 10 µM ([3]; test 2, read-out: inhibition effect (survival rate of cells)): 66.2%
- viability at 10 µM ([3]; test 3, read-out: inhibition effect (survival rate of cells)): 61%
- viability at 10 µM ([3]; test 4, read-out: inhibition effect (survival rate of cells)): 64.3%
- viability at 10 µM (gastric cancer cell): 82.8%
- viability at 10 µM [4, 9]: 72.7%
- viability at 10 µM ([4]; 72 h, osteosarcoma cell (U2OS average), read-out: Inhibitory effect): 72.7%
- viability at 10 µM ([4]; 72 hours, test 6-26-10 min, read-out: inhibition effect (survival rate of cells)): 69.3%
- viability at 10 µM ([4]; 72 hours, test 6-28-10 min, read-out: inhibition effect (survival rate of cells)): 66.7%
- viability at 10 µM ([4]; 72 hours, test 6-30-10 min, read-out: inhibition effect (survival rate of cells)): 73%
- viability at 10 µM ([4]; 72 hours, test 7-3-10 min, read-out: inhibition effect (survival rate of cells)): 81.7%
- viability at 10 µM [5, 9]: 84.6%
- viability at 10 µM [5, 10]: 90.2%
- viability at 10 µM [5, 11]: 92.8%
- viability at 10 µM [5, 12]: 83%
- viability at 10 µM [5, 13]: 72.5%
- inhibition effect on tumor cells (in words) ([6]; both low dose (100 mg/kg/day) and high dose (200 mg/kg/day), FIG. 2): significant inhibition effect on tumor cells
- Tumor volume growth, average [6, 14]: 0 mm3
- tumor volume, average [6, 14]: 0 mm3
- Tumor volume growth [6, 14]: 0 mm3
- tumor longest length [6, 14]: 0 mm
- tumor volume [6, 14]: 0 mm3
- tumor width [6, 14]: 0 mm
- Tumor volume growth, average [6, 15]: 25.67 mm3
- tumor volume, average [6, 15]: 25.67 mm3
- Tumor volume growth [6, 16]: 18 mm3 and 27 mm3 and 32 mm3
- tumor longest length [6, 16]: 4 mm (2×) and 6 mm
- tumor volume [6, 16]: 18 mm3 and 27 mm3 and 32 mm3
- tumor width [6, 16]: 3 mm (2×) and 4 mm
- Tumor volume growth, average [6, 17]: −50 mm3
- tumor volume, average [6, 17]: 0 mm3
- tumor longest length [6, 17]: 0 mm
- tumor volume [6, 17]: 0 mm3
- tumor width [6, 17]: 0 mm
- Tumor volume growth ([6]; high dose (200 mg/kg/day) i.p. once daily, Fourth measurement, 200 mg/kg/day): −87.5 mm3 and −62.5 mm3 and 0 mm3
- Tumor volume growth, average [6, 18]: 57.67 mm3
- tumor volume, average [6, 18]: 83.33 mm3
- tumor width [6, 18]: 5 mm
- Tumor volume growth [6, 19]: 69.5 mm3 and 48 mm3 and 55.5 mm3
- tumor longest length [6, 19]: 7 mm (2×) and 6 mm
- tumor volume [6, 19]: 87.5 mm3 (2×) and 75 mm3
- Tumor volume growth, average [6, 20]: −33.3333 mm3
- tumor volume, average [6, 20]: 50 mm3
- Tumor volume growth [6, 21]: 0 mm3 and −12.5 mm3 and −87.5 mm3
- tumor longest length [6, 21]: 7 mm and 5 mm and 0 mm
- tumor volume [6, 21]: 87.5 mm3 and 62.5 mm3 and 0 mm3
- tumor width [6, 21]: 5 mm (2×) and 0 mm
- effect on tumor volume growth (in words) ([6]; high dose (200 mg/kg/day), FIG. 3): effectively slow down the tumor volume growth, and can also reduce the tumor volume
- Tumor volume growth, average [6, 22]: 2.667 mm3
- tumor volume, average [6, 22]: 22 mm3
- Tumor volume growth [6, 23]: 0 mm3 (2×) and 8 mm3
- tumor longest length [6, 23]: 4 mm and 6 mm and 0 mm
- tumor volume [6, 23]: 18 mm3 and 48 mm3 and 0 mm3
- tumor width [6, 23]: 3 mm and 4 mm and 0 mm
- Tumor volume growth, average [6, 24]: 176.3333 mm3
- tumor volume, average [6, 24]: 176.3333 mm3
- Tumor volume growth [6, 25]: 256 mm3 and 147 mm3 and 126 mm3
- tumor longest length [6, 25]: 8 mm and 6 mm and 7 mm
- tumor volume [6, 25]: 256 mm3 and 147 mm3 and 126 mm3
- tumor width [6, 25]: 8 mm and 7 mm and 6 mm
- Tumor volume growth, average [6, 26]: −88 mm3
- tumor volume, average [6, 26]: 19.33 mm3
- Tumor volume growth [6, 27]: −108 mm3 and −68 mm3 and −88 mm3
- tumor longest length [6, 27]: 4 mm and 5 mm and 0 mm
- tumor volume [6, 27]: 18 mm3 and 40 mm3 and 0 mm3
- tumor width [6, 27]: 3 mm and 4 mm and 0 mm
- Tumor volume growth, average [6, 28]: −77.5 mm3
- tumor volume, average [6, 28]: 98.83 mm3
- Tumor volume growth [6, 29]: −130 mm3 and −39 mm3 and −63.5 mm3
- tumor longest length [6, 29]: 7 mm and 6 mm and 5 mm
- tumor volume [6, 29]: 126 mm3 and 108 mm3 and 62.5 mm3
- tumor width [6, 29]: 6 mm (2×) and 5 mm
- Tumor volume growth, average [6, 30]: 0 mm3
- tumor volume, average [6, 30]: 98.83 mm3
- Tumor volume growth [6, 30]: 0 mm3
- tumor longest length [6, 31]: 7 mm and 6 mm and 5 mm
- tumor volume [6, 31]: 126 mm3 and 108 mm3 and 62.5 mm3
- tumor width [6, 31]: 6 mm (2×) and 5 mm
- viability at 10 µM ([7]; OVCAR-3, 72 h, NIH-OVCAR-3, 10 μM, average of 4 tests, read-out: inhibition effect (survival rate of cells), average): 91.5%
- viability at 10 µM ([7]; OVCAR-3, NIH-OVCAR-3, 10 μM, 72 hours, test 7-3-30 min, read-out: inhibition effect (survival rate of cells)): 88.3%
- viability at 10 µM ([7]; OVCAR-3, NIH-OVCAR-3, 10 μM, 72 hours, test 7-4-30 min, read-out: inhibition effect (survival rate of cells)): 96.6%
- viability at 10 µM ([7]; OVCAR-3, NIH-OVCAR-3, 10 μM, 72 hours, test 7-7-30 min, read-out: inhibition effect (survival rate of cells)): 88.3%
- viability at 10 µM ([7]; OVCAR-3, NIH-OVCAR-3, 10 μM, 72 hours, test −4-30 min, read-out: inhibition effect (survival rate of cells)): 92.7%
- viability at 10 µM (cervical cancer cell): 71.2%
- viability at 10 µM [8, 9]: 68.4%
- viability at 10 µM [8, 10]: 85.2%
- viability at 10 µM [8, 11]: 51.3%
- viability at 10 µM [8, 12]: 62.2%
- viability at 10 µM [8, 13]: 74.9%

From US10098852B2 (LAUNX BIOMEDICAL CO., LTD., priority 2014, dated 2018)
